# Measurements reported in the supplement of paper PMC10307832.
# Key:
# Experiment in all cases: relative viability (nuclei count vs DMSO), 5 days (fraction); higher = more cells survive
# AZD8055 + Bortezomib = compound: COc1ccc(-c2ccc3c(N4CCOC[C@@H]4C)nc(N4CCOC[C@@H]4C)nc3n2)cc1CO [AZD8055] + CC(C)C[C@H](NC(=O)[C@H](Cc1ccccc1)NC(=O)c1cnccn1)B(O)O [Bortezomib] (partner 0.002 µM)
# Method in brief: (§1)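 Relative viability was taken as the ratio of nuclei in treated wells to nuclei in vehicle wells. Lung cancer cell lines in 1536-well plates received compounds by pin tool one day after seeding, either one drug alone or a fixed anchor-drug dose plus five library-drug doses (not always all listed) in √10 steps. Nuclei were counted on 4× images after 5 days of treatment, and values are medians of duplicate plates.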
# AZD8055 + AZD7762 = compound: COc1ccc(-c2ccc3c(N4CCOC[C@@H]4C)nc(N4CCOC[C@@H]4C)nc3n2)cc1CO [AZD8055] + NC(=O)Nc1cc(-c2cccc(F)c2)sc1C(=O)N[C@H]1CCCNC1 [AZD7762] (partner 0.2 µM)
# Method in brief: as §1
# AZD8055 + Tozasertib = compound: COc1ccc(-c2ccc3c(N4CCOC[C@@H]4C)nc(N4CCOC[C@@H]4C)nc3n2)cc1CO [AZD8055] + Cc1cc(Nc2cc(N3CCN(C)CC3)nc(Sc3ccc(NC(=O)C4CC4)cc3)n2)n[nH]1 [Tozasertib] (partner 0.1 µM)
# Method in brief: as §1
# AZD8055 + Decitabine = compound: COc1ccc(-c2ccc3c(N4CCOC[C@@H]4C)nc(N4CCOC[C@@H]4C)nc3n2)cc1CO [AZD8055] + Nc1ncn([C@H]2C[C@H](O)[C@@H](CO)O2)c(=O)n1 [Decitabine] (partner 2 µM)
# Method in brief: as §1
Cell Line,relative viability (AZD8055 + Bortezomib; first compound 0.01 µM),relative viability (AZD8055 + Bortezomib; first compound 0.03162 µM),relative viability (AZD8055 + Bortezomib; first compound 0.1 µM),relative viability (AZD8055 + Bortezomib; first compound 0.3162 µM),relative viability (AZD8055 + Bortezomib; first compound 1 µM),relative viability (AZD8055 + AZD7762; first compound 0.01 µM),relative viability (AZD8055 + AZD7762; first compound 0.03162 µM),relative viability (AZD8055 + AZD7762; first compound 0.1 µM),relative viability (AZD8055 + AZD7762; first compound 0.3162 µM),relative viability (AZD8055 + AZD7762; first compound 1 µM),relative viability (AZD8055 + Tozasertib; first compound 0.01 µM),relative viability (AZD8055 + Tozasertib; first compound 0.03162 µM),relative viability (AZD8055 + Tozasertib; first compound 0.1 µM),relative viability (AZD8055 + Tozasertib; first compound 0.3162 µM),relative viability (AZD8055 + Tozasertib; first compound 1 µM),relative viability (AZD8055 + Decitabine; first compound 0.01 µM),relative viability (AZD8055 + Decitabine; first compound 0.03162 µM),relative viability (AZD8055 + Decitabine; first compound 0.1 µM),relative viability (AZD8055 + Decitabine; first compound 0.3162 µM),relative viability (AZD8055 + Decitabine; first compound 1 µM)
NCI-H460,1.25,0.79,0.44,0.195,0.0935,0.831,0.51,0.607,0.137,0.092,0.648,0.675,0.529,0.208,0.124,0.573,0.352,0.353,0.246,0.13
NCI-H322M,1.24,1.34,1.17,0.894,1.11,0.51,0.454,0.434,0.426,0.432,0.458,0.45,0.408,0.347,0.326,0.71,0.601,0.617,0.555,0.588
EKVX,0.942,1,0.832,0.499,0.356,0.783,0.594,0.605,0.375,0.29,0.451,0.418,0.345,0.226,0.202,0.361,0.286,0.298,0.251,0.26
NCI-H1734,0.954,0.729,0.552,0.278,0.274,0.549,0.361,0.273,0.181,0.15,0.234,0.26,0.23,0.194,0.196,0.551,0.344,0.433,0.299,0.234
ABC-1,0.3,0.287,0.366,0.284,0.329,0.879,0.766,1.02,0.406,0.495,0.186,0.187,0.174,0.196,0.19,1.16,1.51,0.825,0.697,0.576
EPLC-272H,0.74,0.62,0.754,0.522,0.691,0.178,0.0952,0.243,0.109,0.127,0.279,0.152,0.161,0.229,0.222,0.41,0.265,0.272,0.248,0.226
NCI-H1993,0.886,0.706,0.599,0.568,0.586,0.646,0.377,0.402,0.366,0.516,0.55,0.534,0.518,0.47,0.526,0.49,0.488,0.49,0.444,0.386
NCI-H596,0.856,0.722,0.697,0.459,0.497,1.04,0.776,0.632,0.567,0.489,0.698,0.698,0.434,0.308,0.329,1.06,0.841,0.698,0.571,0.528
